The text below walks through data of the NIST ThermoML archive (doi:10.1016/j.jct.2008.02.005).

Molecules are shown by their SMILES. ± gives the expanded uncertainty stated by the source.

The conditions of data set [1]: 101 kPa, Liquid; for viscosity: Capillary tube (Ostwald / Ubbelohde) method; for speed of sound: Sing-around technique in a fixed-path interferometer.
A short description of data set [2]: xn = mol fraction of the nth substance listed. As to conditions: 101 kPa, Liquid, x2 = 0; for viscosity: Capillary tube (Ostwald / Ubbelohde) method; for speed of sound: Sing-around technique in a fixed-path interferometer.

As usually defined, the mass density is the mass of a sample divided by its volume. For orientation: viscosity means the resistance of a fluid to flow. The term speed of sound denotes the propagation velocity of pressure waves in the medium. Turning to `CCCCCCCC` [octane], in data set [1] (298.15 K), the mass density was determined as 698.58 ± 0.77 kg/m3, the viscosity came to 0.518 ± 0.007 mPa·s and the speed of sound came out at 1172.7 ± 0.8 m/s. For the same compound, in data set [1] (303.15 K), the mass density is listed as 694.497 ± 0.78 kg/m3 and the speed of sound is reported as 1152.1 ± 0.8 m/s. Also, in data set [1] (308.15 K), the mass density turned out to be 690.416 ± 0.78 kg/m3 and the speed of sound worked out at 1131.7 ± 0.8 m/s.

Turning to `CCCCCC` [hexane], in data set [1] (298.15 K), the mass density worked out at 655.072 ± 0.92 kg/m3, the viscosity came to 0.313 ± 0.007 mPa·s and the speed of sound came to 1077.8 ± 1.2 m/s. Moreover, in data set [1] (303.15 K), the mass density stood at 650.369 ± 0.92 kg/m3 and the speed of sound stood at 1055.2 ± 1.2 m/s. In addition, in data set [1] (308.15 K), the mass density stood at 645.767 ± 0.93 kg/m3 and the speed of sound is on record as 1032.9 ± 1.1 m/s.

Turning to `CCCCCCCCO` [octan-1-ol], the mass density in data set [1] (298.15 K) turned out to be 821.813 ± 0.54 kg/m3; in data set [1] (303.15 K), 818.796 ± 0.54 kg/m3; in data set [1] (308.15 K), 815.286 ± 0.55 kg/m3. Also, the viscosity in data set [1] (298.15 K) was 7.508 ± 0.042 mPa·s. Besides, the speed of sound in data set [1] (298.15 K) turned out to be 1348 ± 0.8 m/s; in data set [1] (303.15 K), 1330.8 ± 0.8 m/s; in data set [1] (308.15 K) it was 1314.1 ± 0.8 m/s.

With `CCCCCCCCCC` [decane], in data set [1] (298.15 K), the mass density amounted to 726.806 ± 1.7 kg/m3, the viscosity came to 0.852 ± 0.015 mPa·s and the speed of sound was 1234.8 ± 3.1 m/s. In data set [1] (303.15 K), the mass density was 723.042 ± 1.7 kg/m3 and the speed of sound is 1215.2 ± 3.1 m/s. In data set [1] (308.15 K), the mass density turned out to be 719.23 ± 1.7 kg/m3 and the speed of sound was determined as 1195.6 ± 3.1 m/s.

As for `CCCCCC` [hexane] + CCCCCCCCO, the viscosity in data set [2] (298.15 K) is reported as 0.313 ± 0.007 mPa·s. The results for the speed of sound in data set [2] (298.15 K), in data set [2] (303.15 K) and in data set [2] (308.15 K) were 1077.8 ± 1.2 m/s, 1055.2 ± 1.2 m/s and 1032.9 ± 1.1 m/s, respectively. The mass density in data set [2] (298.15 K) is 655.072 ± 0.92 kg/m3; in data set [2] (303.15 K) it was 650.369 ± 0.92 kg/m3; in data set [2] (308.15 K), 645.767 ± 0.93 kg/m3.

Turning to `CCCCCCCCCC` [decane] + CCCCCCCCO, in data set [2] (298.15 K), the viscosity is 0.852 ± 0.015 mPa·s. For the same compound, the speed of sound is listed as 1234.8 ± 3.1 m/s in data set [2] (298.15 K), 1215.2 ± 3.1 m/s in data set [2] (303.15 K) and 1195.6 ± 3.1 m/s in data set [2] (308.15 K). Further, the mass density in data set [2] (298.15 K) was 726.806 ± 1.7 kg/m3; in data set [2] (303.15 K) it was 723.042 ± 1.7 kg/m3; in data set [2] (308.15 K) it was 719.23 ± 1.7 kg/m3.

With `CCCCCCCC` [octane] + CCCCCCCCO, in data set [2] (298.15 K), the viscosity amounted to 0.518 ± 0.007 mPa·s, the speed of sound was determined as 1172.7 ± 0.8 m/s and the mass density came out at 698.58 ± 0.77 kg/m3. Further, in data set [2] (303.15 K), the speed of sound came to 1152.1 ± 0.8 m/s and the mass density is 694.497 ± 0.78 kg/m3. Moreover, in data set [2] (308.15 K), the speed of sound came to 1131.7 ± 0.8 m/s and the mass density was determined as 690.416 ± 0.78 kg/m3.
